Experimental data published in patent US20260193180A1, “AUTOPHAGY INDUCING COMPOUNDS AND USES THEREOF” (SAMSARA THERAPEUTICS INC., priority 2022, published 2026).
Where a name gives a salt, the structure may show the parent alone.

Key:
[1] = system: C57BL/6JRj mice injured by intra-nigral injections of alpha-synuclein and CBE; assay: Mouse model of Parkinson's disease (intra-nigral alpha-synuclein protofibrils plus CBE); type: in vivo; conditions: 30 mg/kg per os on the first day, then 10 mg/kg per os once a day
Description: This model (run by Neuro-Sys SAS, France) uses C57BL/6JRj mice injured by intra-nigral injections of a solution containing protofibrils of alpha-synuclein (α-syn, precisely quantified by automatic Western Blot) and combined with pharmacological inhibition of GBA by conduritol B epoxide (CBE), in aged mice. The model mimics the main pathologies of PD: loss of dopaminergic neurons in the substantia nigra, neuroinflammation, deficits in motor coordination and synucleinopathy (α-syn aggregation). Any substance with positive effects in this model may be useful as a new therapeutic agent for the treatment or prevention of PD.
• Type of animal: C57BL/6JRj (Male) • Age: 18 months old • Supplier: Janvier Labs • Animal number: 10 mice per group • Acclimation and clinical signs: Animals arrived on site 7 days (one week) before the experiment to allow optimal acclimation.
Overview: CBE was administered along with the test compounds, starting on the day of the stereotaxic injections of the α-syn oligomer preparation.
Test compounds at specific concentrations (see below) were administered per os (gavage or drinking water). • Test compound treatment: The test compounds were solubilized (vehicle=water), aliquoted and stored at −20° C. Aliquots were thawed overnight at 4° C. and given once a day. Treatment started on the day of the stereotaxic injections of α-syn preparation (Day 0). Treatment was administrated until the last day of the experiment (Day 28; =day of dissection). • CBE dose and administration: 50 mg/kg, Intraperitoneal (i.p.), twice a day. • CBE treatment: Administration of CBE (vehicle=saline [NaCl 0.9%] started on the day of the stereotaxic injections of α-syn preparation (Day 0). Treatment was administrated until the last day of the experiment (Day 28; =day of dissection), • Untreated control: vehicle (saline; i.p.) administered twice a day, • Stereotaxic injections of α-syn oligomers: Human α-syn peptide (stock at 69 μM in water at −20° C.) was reconstituted at 50 μM in NaCl, 0.9% (final concentration). All mice in compound treated groups were subjected to surgery and received 2.5 μL of α-syn solution. Mice were anesthetized by isoflurane (4%, for induction), in an induction chamber coupled with a vaporizer and to an oxygen concentrator. Mice were placed on the stereotaxic frame. Anesthesia was maintained by isoflurane (2%) with a face mask coupled to the isoflurane vaporizer and oxygen concentrator machine. The skull was exposed and holes were drilled. The α-syn preparation was bilaterally injected into the SNpc, at the following coordinates: A-P, −0.3 mm; M-L, +0.12 mm; D-V, −0.45 mm. Depth of anesthesia and rectal temperature were verified every 5 minutes. After surgery, mice were allowed to recover before being placed back in the cage.
• i) Body mass • ii) Assessment of motor coordination: bar test and grid walking test • iii) Dopaminergic Tyrosine hydroxylase (TH)-positive neuron survival in the substantia nigra pars compacta (SNpc), i.e. a measure of the number of TH neurons in the SNpc • iv) α-syn area in TH positive neurons (a measure of the degree of aggregation of α-syn in TH positive neurons, in the SNpc)
• Overall: For overall evaluation and body mass, mice were observed daily, and body mass was monitored prior to drug administration. • Assessment of motor coordination: bar test.
In the third week (Week 3) post-surgery, motor coordination of the mice was assessed with the bar test. The principle of the test is based on the capacity of the mice to cross a horizontal bar connected to a platform (18 mm of diameter, 60 cm long). The test requires good coordination between front and hindlimbs, and good balance. Mice are placed at one extremity of the bar and need to reach a platform located at the other side of the bar. Motor coordination was studied after two training sessions, one and two days before the test. Three sessions were recorded by a video camera system. […]

[2] = system: Human osteosarcoma U2OS cells; assay: Acidic vesicle formation (lysosome/autolysosome staining, LysoView 633 / LysoTracker Deep Red), stimulation of autophagy; type: cell-based; conditions: 10 μM, 24 hours, read-out: increase in acidic vesicle formation over the DMSO-treated control
Protocol: Lysosomes play a fundamental role in the autophagic pathway by fusing with autophagosomes and creating ‘autolysosomes’ in order to digest their contents. Stimulation of lysosome and autolysosome formation by a compound is indicative of a stimulation of autophagy. The ability of compounds to stimulate lysosome and autolysosome formation, and thus autophagy, in live cells was assessed via fluorescent microscopy using various fluorescent stains for labelling and tracking acidic organelles (including lysosomes and autolysosomes) such as: LysoView™ 650 (70059 and 70059-T, Biotium), LysoView™633 (70058 and 70058-T, Biotium) and LysoTracker™ Deep Red (L12492, ThermoFisher Scientific). The cellular phenotype was quantitatively assessed for the induction of acidic vesicle formation and compared to a non-treated control, thus providing a measure of the ability of the compound under investigation to stimulate autophagy.
Representative procedure using LysoView™633 dye or LysoTracker™ Deep Red dye: Human osteosarcoma U2OS cells (40,000 cells/well) were seeded in a 24 well glass bottom plate (Sensoplate, Greiner Bio-One) and were incubated overnight in a humidified atmosphere at 37° C. and 5% CO2. Cells were grown in DMEM (Gibco) supplemented with 10% Fetal Bovine Serum (FBS) and 100 units/ml penicillin and 100 μg/ml streptomycin (Invitrogen). After the attachment period, cells were treated with different compounds of interest (at various concentrations in DMSO) or DMSO (non-treated control) in cell culture medium and were incubated for 24 hours. Compound-containing medium was removed and cells were incubated with pre-warmed cell culture medium containing 1× LysoView™ 633 (70058 and 70058-T, Biotium) or 50 nM LysoTracker™ Deep Red (L12492, ThermoFisher Scientific) for 45 minutes at 37° C. Finally, cell nuclei were stained for 10 minutes using Hoechst 33342 (1 μg/mL) and then the medium was replaced with fresh medium. The 24 well plate was then fitted into a heated stage on the microscope and cells maintained at 37° C. Images were captured using appropriate filter set for Cy5 and DAPI detection with the EVOS M7000 Microscope (ThermoFisher Scientific). The cellular phenotype was visually assessed for the induction of acidic vesicle formation relative to the non-treated control; multiple images were acquired and analysed using ImageJ or Cell Profiler.

[3] = system: U2OS cell line stabling expressing RFP-eGFP-hLC3b; assay: Tandem reporter assay (autophagic flux), RFP-only puncta (autolysosomes); type: cell-based; conditions: Homo sapiens, average of two runs, read-out: Activity (Autolysosome % DMSO activity)
Protocol: Selected compounds of this invention were also assessed for their ability to stimulate autophagy using a U2OS cell line stabling expressing RFP-eGFP-hLC3b (a tandem reporter cell line). This assay is further described in WO 2023/089074.
LC3b is a protein found in the membrane of autophagosomes which has been used to generate genetic reporters of autophagy in cells. In these systems a tandem fusion of LC3b is engineered with two fluorescent proteins of different wavelengths: one which is acid sensitive (for example eGFP, which fluoresces green) and the other which is acid insensitive (for example RFP, which fluoresces red). Cells expressing RFP-eGFP-hLC3b can be examined using fluorescent microscopy: the autophagosomes present will fluoresce in both channels (either yellow in an overlay of both channels or puncta that are present in both the individual red and green channels) but the autolysosomes present will fluoresce in the RFP (red) channel only. Using a fluorescent microscope, the number of autophagosomes and autolysosomes can be counted, allowing for the monitoring of both the induction of autophagy (total puncta count) and the rate of autophagic flux (ratio of red-only to red-and-green puncta). The influence of small molecules on autophagy induction and flux can be assessed using this system by comparison to a non-treated control.
Representative Procedure: Human osteosarcoma U20S cells stably expressing RFP-eGFP-hLC3b were seeded (10,000 cells/well) into a 96-well glass-bottom plate (Cell Carrier Ultra, Perkin Elmer) in DMEM Glutamax media (Gibco) supplemented with 10% Fetal Bovine Serum (FBS) and antibiotics (100 μg/ml penicillin, 100 μg/ml streptomycin, Invitrogen), then incubated overnight in a humified atmosphere at 37° C. and 5% CO2. The cells were then treated with the compounds of interest, dissolved in DMSO, in a duplicated 5- or 10-point dose-response. 8 wells were treated with an equivalent volume of DMSO, 4 with 0.3 μM torin-1 as a positive control (MCE) and 4 wells with 0.4 μM torin-1 plus 0.2 μM bafilomycin (MCE) as a control for flux inhibition. The cells were returned to the incubator and the treatment continued for 24 hours. After treatment, the media was aspirated off and the cells fixed with a solution of 4% formaldehyde+1% glutaraldehyde (Sigma) in dPBS (plus magnesium and calcium, Gibco). Fixation was allowed to proceed for 15 minutes at room temperature then the fixative solution discarded and replaced with PBS (Gibco) plus Hoescht 33342 (1 μg/ml, Sigma). After 30 minutes the plates were imaged on an Opera Phenix confocal microscope (Perkin-Elmer) using a 40× water objective, collecting using DAPI, mCherry and GFP channels. Cells were detected based upon the staining of their nuclei with DAPI using the Harmony image analysis software (Perkin-Elmer) and the number of autophagosomes (GFP and RFP puncta) and autolysosomes (RFP only puncta) per cell were counted using the spot picking function within the software.

For `CCOc1ccc(CN2CC[C@H](CN)C2)cc1Cl.Cl` [Compound 23, (R)-(1-(3-chloro-4-ethoxybenzyl)pyrrolidin-3-yl) methanamine hydrochloride], the “bar test: decrease in the mean time required to cross the bar compared to the α-syn/CBE injured group” value ([1]; week 3) was 11%, the “bar test: reduction in the mean number of steps required to cross the bar compared to the α-syn/CBE injured group” value ([1]; week 3) was 3% and the “bar test: reduction in the number of misplaced steps (failed strides) compared to the α-syn/CBE injured group” value ([1]; week 3) was 39%. For the same molecule, the “decrease in the aggregation of α-syn in TH neurons (α-syn area) compared to the α-syn/CBE injured group” value ([1]; week 4) was 16%, the “grid walking test: increase in the total distance travelled during the test” value ([1]; week 4) was 14% and the “grid walking test: reduction in the mean number of failures per meter (number of missed steps)” value ([1]; week 4) was 14%. For the same molecule, the “increase in the number of dopaminergic TH positive neurons in the SNpc compared to the α-syn/CBE injured group” value ([1]; week 4) was 31% and the activation at 10 µM [2] was at least 25%.

In the case of `COCCOc1ccc(CCN2CCC[C@@H](N)C2)cc1Cl` [Compound 89, (R)-1-{2-[3-chloro-4-(2-methoxyethoxy)phenyl]ethyl}-3-piperidylamine hydrochloride], the activity at 1.25 µM [3] is reported as 150 to 200%.

In the case of `N[C@@H]1CCN(Cc2cc(Cl)c(OCC3CC3)c(Cl)c2)C1` [Compound 73, (R)-1-(3,5-dichloro-4-(cyclopropylmethoxy)benzyl)pyrrolidin-3-amine hydrochloride], the activity at 1.25 µM [3] is reported as 250 to 300%.

With `NC1CCN(Cc2cc(Cl)c(OCC3CC3)c(Cl)c2)CC1` [Compound 98, 1-{[3,5-dichloro-4-(cyclopropylmethoxy)phenyl]methyl}-4-piperidylamine hydrochloride] the activity at 1.25 µM [3] was 150 to 200%.

With `N[C@@H]1CCCN(Cc2cc(Cl)c(OCC3CC3)c(Cl)c2)C1` [Compound 97, (R)-1-{[3,5-dichloro-4-(cyclopropylmethoxy)phenyl]methyl}-3-piperidylamine hydrochloride] the activity at 1.25 µM [3] was 150 to 200%.

For `COCCOc1ccc(CN2CCC(N)CC2)cc1Cl` [Compound 95, 1-{[3-chloro-4-(2-methoxyethoxy)phenyl]methyl}-4-piperidylamine hydrochloride], the activity at 1.25 µM [3] was 200 to 250%.

Molecule `N[C@H]1CCCN(CCc2cc(Cl)c(OCC3CC3)c(Cl)c2)C1` [Compound 74, (S)-1-(3,5-dichloro-4-(cyclopropylmethoxy)phenethyl)piperidin-3-amine hydrochloride] has an activity at 1.25 µM [3] of over 300%.

Molecule `CCOc1ccc(CCN2CC[C@@H](N)C2)cc1F` [Compound 88, (R)-1-[2-(4-ethoxy-3-fluorophenyl)ethyl]-3-pyrrolidinylamine hydrochloride] has an activity at 1.25 µM [3] of 150 to 200%.

`CCOc1ccc(C#N)cc1CCN1CC[C@H](N)C1` [Compound 86, (S)-3-(2-(3-aminopyrrolidin-1-yl)ethyl)-4-ethoxy benzonitrile hydrochloride] was tested, and the activity at 1.25 µM [3] was 150 to 200%.

`COCCOc1c(Cl)cc(CCN2CCC[C@@H](N)C2)cc1Cl` [Compound 76, (R)-1-(3,5-dichloro-4-(2-methoxyethoxy)phenethyl)piperidin-3-amine hydrochloride] gave an activity at 0.5 µM [3] of 150 to 200%.

`COCCOc1c(Cl)cc(CCN2CCC[C@H](N)C2)cc1Cl` [Compound 72, (S)-1-(3,5-dichloro-4-(2-methoxyethoxy)phenethyl)piperidin-3-amine hydrochloride] was tested, and the activity at 0.5 µM [3] was 150 to 200%.

`N[C@@H]1CCCN(CCc2cc(Cl)c(OCC3CC3)c(Cl)c2)C1` [Compound 78, (R)-1-(3,5-dichloro-4-(cyclopropylmethoxy)phenethyl)piperidin-3-amine hydrochloride] was tested, and the activity at 1.25 µM [3] was 200 to 250%.

Molecule `CCOc1ccc(CCN2CCC(N)CC2)cc1Cl` [Compound 71, 1-(3-chloro-4-ethoxyphenethyl)piperidin-4-amine hydrochloride] has an activity at 0.833 µM ([3]; 0.833 μM) of 150 to 200%.

For `N[C@@H]1CCN(CCc2ccc(OCC3CC3)c(Cl)c2)C1` [Compound 99, (R)-1-{2-[3-chloro-4-(cyclopropylmethoxy)phenyl]ethyl}-3-pyrrolidinylamine hydrochloride], the activity at 1.25 µM [3] was 150 to 200%.
